Experimental data from US20160251403A1, “PEPTIDE COMBINATIONS AND USES THEREOF IN TREATING DUST MITE ALLERGY” (ALK-ABELLO A/S, priority 2013, published 2016).
Positions count from the first letter of the chain named. pIC50: −log10 of the molar value. No end group written: not given here.

Columns and labels:
DRB1_0802 = DRB1_0802 (Homo sapiens, UniProt P01903+P01911, A100R/A103L/A169T/F76Y/H45Y/I96F/K41T/L162R/M171V/P40S/Q125H/Q178H/Q39Y/Q99D/R218S/R42G/S66Y/V115G/W38E); experiment: Competitive MHC class II binding assay, DRB1_0802
DRB1_0901 = DRB1_0901 (Homo sapiens, UniProt P01903+P01911, A100R/A103E/D57H/D86V/F55Y/F60I/F76Y/I96F/K127E/L162R/M171V/P40D/Q125H/Q99R/R33Q/R42F/S133A/S66N/T210M/V115G/W38K/Y107V/Y59G/Y89S); experiment: Competitive MHC class II binding assay, DRB1_0901;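 further: displacement of a radiolabeled probe peptide from purified HLA class II protein, bound counts read after two to four days incubation, six concentrations spanning 100,000-fold, unlabeled probe as reference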
DPA10103-DPB10401 = molecular target: T1, DPA10103-DPB10401 (Homo sapiens, UniProt P04440+P20036); experiment: Competitive MHC class II binding assay, DPA10103-DPB10401
T1 sequence (P20036 29-260): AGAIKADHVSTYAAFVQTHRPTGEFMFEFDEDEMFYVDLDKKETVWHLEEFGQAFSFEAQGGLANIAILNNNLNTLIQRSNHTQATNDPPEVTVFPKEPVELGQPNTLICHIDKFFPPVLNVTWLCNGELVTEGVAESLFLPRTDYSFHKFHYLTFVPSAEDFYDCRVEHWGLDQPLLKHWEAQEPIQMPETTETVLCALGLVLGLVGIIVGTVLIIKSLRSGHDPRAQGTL
T1 sequence (P04440 30-258): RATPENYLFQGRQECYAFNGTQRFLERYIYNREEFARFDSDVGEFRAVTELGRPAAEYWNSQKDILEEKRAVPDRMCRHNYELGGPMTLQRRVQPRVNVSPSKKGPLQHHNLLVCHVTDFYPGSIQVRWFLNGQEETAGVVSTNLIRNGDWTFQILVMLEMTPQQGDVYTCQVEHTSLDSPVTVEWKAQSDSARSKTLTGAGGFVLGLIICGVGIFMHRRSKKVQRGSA

DQA10101-DQB10501 = DQA10101-DQB10501 (Homo sapiens, UniProt P01909+P01920, A157S/A45G/A70V/C70R/D89V/E106S/E118A/E183D/E77G/F83G/G63E/H151Q/H199R/H252R/H253Q/I129T/I235V/I88M/INS77G/K197Q/L107V/L117V/L119Y/L178F/L71W/L74F/L85Q/L91A/L98M/M46L/N214S/P87R/Q116E/Q256R/Q57E/Q76K/R102G/R240Q/R75S/R78G/S102Y/S185I/S41F/S97I/T103A/T109R/T121G/T122I/T172A/T86R/V148I/V68A/V73E/Y34C/Y58G/Y62H); experiment: Competitive MHC class II binding assay, DQA10101-DQB10501; settings: positive binding at cutoff 1000 nM; read-out: HLA-DQA10101-DQB10501
DRB3_0202 = DRB3_0202 (Homo sapiens, UniProt P01903+P79483, A212P/D57E/F66Y/L67A/R103Q/R218S/R40L/S89Y/T80R/V86D/Y55F/Y59H); experiment: Competitive MHC class II binding assay, DRB3_0202
DRB1_0701 = DRB1_0701 (Homo sapiens, UniProt P01903+P01911, A100R/A102G/A103Q/D57E/D86V/E43K/F76Y/K127E/L162R/M171V/P40G/Q125H/Q99D/R33Q/R42Y/R54Q/S133A/S66F/T210M/V115G/Y107V/Y59L/Y89S); experiment: Competitive MHC class II binding assay, DRB1_0701;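 further: displacement of a radiolabeled reference peptide from purified HLA class II protein, with complex-bound radioactivity counted after 2–4 days of incubation and six concentrations spanning a 100,000-fold range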
DPA10201-DPB10101 = experiment: Competitive MHC class II binding assay, DPA10201-DPB10101; settings: read-out: HLA-DPA10201-DPB10101; positive binding at cutoff 1000 nM
DRB1_0401 = DRB1_0401 (Homo sapiens, UniProt P01903+P01911, A100K/A169T/F76Y/I96L/K127E/L162R/M171V/N62H/P40V/Q125Y/R42H/S133A/S149N/S66Y/V115G/V209L/W38E); experiment: Competitive MHC class II binding assay, DRB1_0401
DRB1_0405 = DRB1_0405 (Homo sapiens, UniProt P01903+P01911, A100R/A169T/D86S/F76Y/I96L/K127E/L162R/M171V/N62H/P40V/Q125Y/R42H/S133A/S149N/S66Y/V115G/V209L/W38E); experiment: Competitive MHC class II binding assay, DRB1_0405
DRB1_0101 = DRB1_0101 (Homo sapiens, UniProt P01903+P01911, A100R/D57E/F55L/F60I/F76Y/I96L/L162R/M171V/P40L/Q125E/R42F/V115G/Y59C); experiment: Competitive MHC class II binding assay, DRB1_0101;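 further: competition against a radiolabeled probe peptide (0.1–1 nM) for purified HLA class II protein over 2–4 days, bound counts read after antibody capture, six competitor levels across 100,000-fold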
DRB1_1302 = DRB1_1302 (Homo sapiens, UniProt P01903+P01911, A100E/A169T/K41T/L162R/M171V/P40S/Q125H/Q178H/Q39Y/Q99D/R42S/S66N/T262R/V115G/W38E/Y61H); experiment: Competitive MHC class II binding assay, DRB1_1302;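 further: purified HLA class II protein incubated two to four days with a radiolabeled reference binder and test peptide at six concentrations over a 100,000-fold range, complex-bound radioactivity counted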
DRB1_1501 = DRB1_1501 (Homo sapiens, UniProt P01903+P01911); experiment: Competitive MHC class II binding assay, DRB1_1501
DRB5_0101 = DRB5_0101 (Homo sapiens, UniProt P01903+Q30154); experiment: Competitive MHC class II binding assay, DRB5_0101
DRB4_0101 = DRB4_0101 (Homo sapiens, UniProt P01903+P13762, G164S); experiment: Competitive MHC class II binding assay, DRB4_0101
DPA10201-DPB11401 = experiment: Competitive MHC class II binding assay, DPA10201-DPB11401; settings: read-out: HLA-DPA10201-DPB11401; positive binding at cutoff 1000 nM
DPA10202-DPB10501 = molecular target: T2, DPA10202-DPB10501 (Homo sapiens, UniProt P04440+P20036, A42M/A65V/A84E/F191V/F64L/G113D/G114E/K142R/L158P/M116V/M62Q/P115A/Q81R/R125K/T114A/T199I/T259P/V234M); experiment: Competitive MHC class II binding assay, DPA10202-DPB10501; settings: positive binding at cutoff 1000 nM; read-out: HLA-DPA10202-DPB10501
T2 sequence (P04440 30-258 A65V/A84E/F64L/G113D/G114E/M116V/P115A/R125K/T199I/V234M): T1 sequence (P04440 30-258) with F35L, A36V, A55E, G84D, G85E, P86A, M87V, R96K, T170I, V205M
T2 sequence (P20036 29-260 A42M/F191V/K142R/L158P/M62Q/Q81R/T114A/T259P): T1 sequence (P20036 29-260) with A14M, M34Q, Q53R, T86A, K114R, L130P, F163V, T231P

DRB1_0301 = DRB1_0301 (Homo sapiens, UniProt P01903+P01911, A100K/A102G/A103R/A169T/F55Y/I96L/K41T/L162R/M171V/P40S/Q125H/Q178H/Q39Y/R42S/S66N/T106N/T262R/W38E/Y61H); experiment: Competitive MHC class II binding assay, DRB1_0301
DPA10103-DPB10201 = molecular target: T3, DPA10103-DPB10201 (Homo sapiens, UniProt P04440+P20036, A65V/A84D/A85E/K98E); experiment: Competitive MHC class II binding assay, DPA10103-DPB10201
T3 sequence (P20036 29-260): T1 sequence (P20036 29-260)
T3 sequence (P04440 30-258 A65V/A84D/A85E/K98E): T1 sequence (P04440 30-258) with A36V, A55D, A56E, K69E

DRB1_1201 = DRB1_1201 (Homo sapiens, UniProt P01903+P01911, A100R/A169T/D57E/D86V/F55L/H45Y/K41T/L162R/M171V/P40S/Q125H/Q178H/Q39Y/Q99D/R42G/S66L/T262R/V114A/V67L/W38E/Y59H/Y61H/Y89S); experiment: Competitive MHC class II binding assay, DRB1_1201

Measured: pIC50

ESAYLAYRNQSLDLAE [pep-009]
not listed: DPA10201-DPB11401 | DPA10202-DPB10501 | DRB1_0301 | DPA10103-DPB10201 | DRB1_1201
> 6.00: all other assays above

QQYDIKYTWNVPKIA [pep-031]
not listed: DPA10103-DPB10401 | DPA10201-DPB10101 | DRB1_0405 | DRB1_0101
> 6.00: all other assays above
